Test results as given in patent US20260207551A1, “PHOSPHOGLICERATE DEHYDROGENASE INHIBITORS FOR THE TREATMENT OF FIBROSIS” (CHIESI FARMACEUTICI S.P.A., priority 2022, published 2026).
Like-named read-outs stand apart in the source and are kept apart here.

Tests used:
[1] = test system: αSMA; assay: Phenotypic assay: high content aSMA staining in NHLF cells; format: cell-based, Human; conditions: NHLF, 72 h incubation
Description: NHLF cells (Lonza #CC2512) were seeded as 2000 cells/well in 384-well plates in MEM medium w/o serine and glycine (Sigma #M2279)+1% pen/strep+5 mM L-glutamine +10% FBS and incubated overnight at 37° C., 5% CO2.
The next day, cells were washed with PBS and starvation MEM medium w/o serine and glycine (0% FBS) was added and cells were incubated overnight at 37° C., 5% CO2. The day after, cells were pre-incubated with compounds or vehicle (0.3% DMSO) for 1 h. Compounds were tested at 9 consecutive 3-fold dilutions starting from 30 μM. Each compound was tested in duplicate. Cells were further incubated for 72 h at 37° C., 5% CO2, 95% humidity. After 72 h of incubation, αSMA expression was quantified using immunostaining: • Fixation in 4% paraformaldehyde, • Blocking with 3% BSA, 2% FBS, 0.2% Triton-X in PBS, • Primary ab. anti-αSMA (AbCam #ab7817) diluted 500× in blocking buffer • Anti-mouse secondary ab. AF488 (ThermoFisher #A11029) • % of αSMA positive cells was determined by High Content Imaging (Molecular Device), data analysis was performed using MetaXpress software (Molecular Devices) and % of αSMA positive was further used to calculate % of inhibition for tested compounds. Total cell number was determined by Hoechst staining and % of viability over TGFβ stimulated controls was calculated.

[2] = test system: synthesis of 13C3-serine; assay: PK/PD model: in vivo [13C6] glucose tracing, inhibition of 13C3-serine synthesis; set-up: species or system mouse male (C57BL/6J); conditions: for inhibition at 300 mg/kg: Mus musculus
Description: As PHGDH catalyzes the rate-limiting step of glucose-derived serine synthesis, a pharmacokinetic/pharmacodynamic (PK/PD) experiment aimed to assess the inhibition of the synthesis of ^13C3-serine after oral administration of ^13C6-glucose was performed in mouse male (C57BL/6J).
(§1) Animals were fasted overnight before treatment. Following 0.5 h from administration of either Compound 19 at dose of 300 mg/kg or vehicle (0.5% Tween 80, 0.5% Methylcellulose in H2O), ^13C6-glucose was administered by oral gavage (2 g/kg, Merck Life Science Srl). Blood, lung, and brain samples were collected at 1 h, 6.5 h and 24.5 h after treatment with Compound 19 or vehicle.
The tissue concentration of ^13C3-serine was determined by a liquid chromatography-tandem mass spectrometry (LC/MS/MS) assay. GraphPad Prism (version 8.1.2) was used for drawing graphs and for statistical analysis. Plasma or tissue homogenate samples (tissues were homogenized with a water/acetonitrile 50/50 mixture) were extracted with 3 volumes of acetonitrile. Supernanatant was injected into HPLC system (Agilent 1260 Quaternary Pump equipped with an Agilent 1200 High Performance Autosampler SL; Agilent), using a Kinetex EVO C18 analytical column (100 A, 50×2.1 mm, 2.6 μm; Phenomenex) for the analysis of Compound 19 or an InfinityLab Poroshell 120 Hilic-Z (50×2.1 mm 2.7 μm; Agilent) for the analysis of ^13C3-serine. The mobile phases consisted of 0.1% formic acid in water (solvent A) and 0.1% formic acid in acetonitrile (solvent B); chromatographic separation was performed with gradient elution method (see conditions below): • Compound 19 (0.0-0.5 min, 10% B; 0.5-3.0 min, gradient to 90% B; 3.0-5.0 min. 90% B; 5.0-6.0 min, gradient to 10% B; 6.0-10.0 min, 10% B—flow rate: 0.4 mL/min). • S^13C3-serine (0.0-0.5 min, 95% B; 0.5-4.0 min, gradient to 60% B; 4.0-5.0 min, 60% B; 5.0-6.0 min, gradient to 95% B; 6.0-10.0 min, 95% B—flow rate: 0.4 mL/min).
Mass spectrometric analysis was performed on a linear ion trap triple quadrupole mass spectrometer (4000 Q TRAP; AB SCIEX) equipped with a turbo spray ion source; mass spectrometer was operated in positive ion mode and quantification was achieved by multiple reaction monitoring (MRM) mode. Peak integration was performed using Analyst (version 1.6.2.). GraphPad Prism (version 8.1.2) was used for drawing graphs and for statistical analysis.
After 0.5 h from administration of Compound 19a at dose of 3, 10, 30, 100 and 300 mg/kg po, Compound 19 at dose of 300 mg/kg po or vehicle po (0.5% Tween 80, 0.5% Methylcellulose in H2O), mice received ^13C6-glucose by oral gavage (2 g/kg, Merck Life Science Srl). […] Blood was withdrawn by cardiac puncture and collected in heparin tubes.

[3] = Plasma and tissue exposure in PK/PD model; format: in vivo, mouse male (C57BL/6J); conditions: male, C57BL/6J, mouse, 300 mg/kg, 1 h, 6.5 h and 24.5 h
Description: as §1
The tissue concentration of ^13C3-serine was determined by a liquid chromatography-tandem mass spectrometry (LC/MS/MS) assay. GraphPad Prism (version 8.1.2) was used for drawing graphs and for statistical analysis. Plasma or tissue homogenate samples (tissues were homogenized with a water/acetonitrile 50/50 mixture) were extracted with 3 volumes of acetonitrile. Supernanatant was injected into HPLC system (Agilent 1260 Quaternary Pump equipped with an Agilent 1200 High Performance Autosampler SL; Agilent), using a Kinetex EVO C18 analytical column (100 A, 50×2.1 mm, 2.6 μm; Phenomenex) for the analysis of Compound 19 or an InfinityLab Poroshell 120 Hilic-Z (50×2.1 mm 2.7 μm; Agilent) for the analysis of ^13C3-serine. […]
Mass spectrometric analysis was performed on a linear ion trap triple quadrupole mass spectrometer (4000 Q TRAP; AB SCIEX) equipped with a turbo spray ion source; mass spectrometer was operated in positive ion mode and quantification was achieved by multiple reaction monitoring (MRM) mode. […]

[4] = test system: NHLFs; assay: FBS induced proliferation of NHLFs (BrdU incorporation); format: cell-based, Human
Description: Human normal lung fibroblasts (NHLFs) were purchased from Lonza (Basel, Switzerland). NHFLs were cultured in Eagle's Minimum Essential medium (EMEM) w/o serine and glycine, supplemented with 10% Fetal Bovine Serum (FBS), antibiotics (50 U/ml penicillin and 0.05 mg/ml streptomycin) and 2 mM L-glutamine, in an atmosphere of 95% air and 5% CO2 at 37° C. NHLFs cultures were used between passage 1 and 9. Before all the experiments, cells were incubated overnight in serum-free medium.
The antiproliferative activity of compounds of the present invention has been monitored measuring the incorporation of bromodeoxyuridine (BrdU), a thymidine analog of DNA, in newly synthesized DNA after treatment in lung cells. Briefly, NHLFs were seeded in 96-well and treated with different concentrations of Compound 19 and NCT-503 in EMEM medium for 1 h followed by stimulation with Fetal Bovine Serum (FBS) for 72 h at 37° C., 5% CO2. After cell treatments, 10 μl/well BrdU labeling solution was added for incorporation in proliferating cells for 2 h at 37° C., 5% CO2. After removing the culture medium, the cells are fixed, and the DNA is denatured by adding FixDenat followed by incubation with 100 μl/well Anti-BrdU-POD for detection. The reaction product is quantified by measuring the absorbance at the respective wavelength using a scanning multiwell spectrophotometer (ELISA reader).

## CC(C)C(C(=O)O)c1ccc(C2(NC(=O)c3cc4c(Cl)c(Cl)ccc4n3C)CCOC2)cc1 (racemic) [Compound 19, (±)-2-(4-(3-(4,5-Dichloro-1-methyl-1H-indole-2-carboxamido)tetrahydro-furan-3-yl)phenyl)-3-methylbutanoic acid]
[1]
  aSMA pIC50: 5.9
[2]; 300 mg/kg po, 1 h
  brain serine concentration (in words): without reaching the statistical significance
[2]; 300 mg/kg, any timepoint (1, 6.5, 24.5 h)
  inhibition of labelled serine in brain: no significant inhibition
[2]; 300 mg/kg po, 1 h, read-out: inhibition of labelled serine in lung
  inhibition at 300 mg/kg: 85%
[2]; 300 mg/kg po, 1 h, read-out: inhibition of labelled serine in plasma
  inhibition at 300 mg/kg: 87%
[2]; 300 mg/kg, at 1 and 6.5 h, read-out: inhibition of labelled serine in plasma and lung
  inhibition at 300 mg/kg: 70 to 85%
[3]; brain / plasma, read-out: mean brain/plasma ratio
  Kp: 0.01
[3]; lung / plasma, read-out: mean lung/plasma ratio
  Kp: 0.4
[4]; Homo sapiens, NHLF, FBS 72 h, confidence interval in brackets, NA: not active, read-out: FBS induced proliferation (pIC50-C.I.) (converted)
  IC50: 631 nM
[4]; NHLFs, 72 h
  cell proliferation induced by serum treatment (FIG. 3): able to reduce the cell proliferation
